# Results published in patent US20100094000A1, “PYRAZOLE COMPOUNDS” (TAKEDA PHARMACEUTICAL COMPANY LIMITED, priority 2008, published 2010).
# Biological target: T1, Human Mineralocorticoid Receptor (hMR) (Homo sapiens, UniProt P08235)
# T1 construct: To obtain the full-length hMR cDNA, pB-hMR (i) was digested with XhoI and PvuI; expressed in transfected cells; host or cells: FreeStyle 293 cells transiently transfected with pMCMVneo-hMR; supernatant of the freeze-thaw lysate (hMR lysate)
# T1 sequence (P08235 1-984): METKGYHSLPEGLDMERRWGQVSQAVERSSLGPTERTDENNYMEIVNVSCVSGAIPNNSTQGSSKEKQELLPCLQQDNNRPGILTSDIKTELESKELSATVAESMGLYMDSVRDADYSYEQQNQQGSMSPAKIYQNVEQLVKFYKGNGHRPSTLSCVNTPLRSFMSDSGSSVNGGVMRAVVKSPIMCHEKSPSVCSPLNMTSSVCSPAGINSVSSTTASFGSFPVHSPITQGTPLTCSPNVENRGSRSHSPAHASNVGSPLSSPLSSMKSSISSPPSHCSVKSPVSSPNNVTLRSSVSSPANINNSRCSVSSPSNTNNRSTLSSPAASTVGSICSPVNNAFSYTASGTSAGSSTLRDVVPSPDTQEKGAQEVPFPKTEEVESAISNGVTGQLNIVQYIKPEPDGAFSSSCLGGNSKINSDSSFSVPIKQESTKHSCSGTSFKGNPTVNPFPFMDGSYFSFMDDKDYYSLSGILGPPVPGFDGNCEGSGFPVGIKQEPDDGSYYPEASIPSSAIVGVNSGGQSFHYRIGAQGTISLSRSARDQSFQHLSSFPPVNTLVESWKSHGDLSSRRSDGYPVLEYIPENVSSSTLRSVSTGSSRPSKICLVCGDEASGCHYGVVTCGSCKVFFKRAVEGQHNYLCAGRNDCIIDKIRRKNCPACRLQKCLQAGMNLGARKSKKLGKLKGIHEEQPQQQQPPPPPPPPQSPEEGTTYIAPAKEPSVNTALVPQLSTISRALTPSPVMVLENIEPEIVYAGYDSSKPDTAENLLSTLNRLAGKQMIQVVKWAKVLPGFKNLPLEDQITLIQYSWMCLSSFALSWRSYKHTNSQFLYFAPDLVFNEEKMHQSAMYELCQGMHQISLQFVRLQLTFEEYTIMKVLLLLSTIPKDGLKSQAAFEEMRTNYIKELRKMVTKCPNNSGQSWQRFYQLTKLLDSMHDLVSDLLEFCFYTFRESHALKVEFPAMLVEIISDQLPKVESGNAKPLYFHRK
# Experiment: Inhibition of binding of hMR and [3H]-aldosterone (hMR lysate, charcoal separation)
# Settings: test compound at 10^−5 M; 10 nM [3H]-aldosterone; hMR lysate; 16 hr at 4° C.; read-out: Inhibition rate (at 10^−5 M)
# Experimental: The following procedures described in this Example were carried out according to the methods described in Molecular Cloning—Cold Spring Harbor Laboratory (1989) or protocols specified by manufacturers.
# (1) Cloning of Human Mineralocorticoid Receptor (hMR) cDNA
# hMR cDNA was amplified by polymerase chain reaction (PCR) from human kidney cDNA library. Full-length cDNA was constructed from two fragments of hMR cDNA amplified separately. The primers were designed referring to the nucleotide sequence of hMR cDNA reported by Arriza et. al (Science 1987; 237: 268-275).
# The PCR reactions were carried out using PyrobestR® DNA polymerase (Takara). The PCR products were electrophoresed in agarose gel, and 1.7 kb (region (i)) and 1.5 kb (region (ii)) DNA fragments were recovered. Each DNA fragment was inserted into pCR®4Blunt-TOPO® vector (Invitrogen). The resulting plasmids thus obtained were designated as pB-hMR (i) and pB-hMR (ii). To obtain the full-length hMR cDNA, pB-hMR (i) was digested with XhoI and PvuI, and pB-hMR (ii) was digested with PvuI and KpnI, respectively, and the two cDNA fragments were ligated into pBlueScript®IISK+ vector (Stratagene). The resulting plasmid thus obtained was designated as pB-hMR.
# pMCMVneo (described in WO03/099793) was digested with XhoI and KpnI, and 5.6 kb fragment was ligated with 2.9 kb hMR cDNA fragment obtained by digestion of pB-hMR (described in above (1)) with XhoI and KpnI. The plasmid thus obtained was designated as pMCMVneo-hMR.
# FreeStyle 293 cells were inoculated at 3×10^8 cells in 270 ml FreeStyle™ 293 Expression Medium (Invitrogen) in a 1000 ml Erlenmeyer flask. The cells were treated with 30 ml of the transfection mixture containing 300 μg of pMCMVneo-hMR obtained in above (2) and 400 μl of 293fectin™ Reagent (Invitrogen). The transfected cells were cultivated for 48 hr at 37° C. in 8% CO2 atmosphere at 125 rpm. The cultivated cells were centrifuged and washed with TEG buffer (10 mM Tris-HCl (pH 7.2), 50 mM EDTA, 10% glycerol), and resuspended in 10 ml TEGM buffer (10 mM Tris-HCl (pH 7.2), 1 mM EDTA, 10% glycerol, 1 mM β-mercaptoethanol, 10 mM sodium molybdate, 1 mM dithiothreitol, 2 tablets/100 ml of protease inhibitor cocktail tablets (Roche)). The cell suspension was frozen with liquid nitrogen and thawed on ice, and ultra-centrifuged at 186,000×g for 20 min at 4° C. The supernatant fraction including hMR (hMR lysate) was collected and stored at −80° C.
# (4) Measurement of Inhibition Activity Against Binding of hMR and Aldosterone
# [^3H]-Aldosterone (Amersham Biosciences) as ligand was added at 10 nM to the reaction mixture including test compound at various concentration and hMR lysate (lot.19: 0.675 mg/mL, lot.20: 0.675 mg/mL, lot.21: 0.765 mg/mL, lot.22: 0.900 mg/mi, lot.23: 0.750 mg/mL) obtained in above (3) and mixture was filled up to 50.5 μl with TEGM buffer. The reaction mixture was incubated for 16 hr at 4° C. and 35 μl of dextran/gelatin coated charcoal suspension (5% charcoal, 0.5% dextran T-70 (Amersham Biosciences), 0.1% gelatin (SIGMA), 10 mM Tris HCl (pH 7.2), 1 mM EDTA) was added thereto to separate bound and free radioactive aldosterone. The mixture containing charcoal was incubated for 10 min at 4° C. and centrifuged at 910×g for 10 min at 4° C.
# Radioactivity in 30 μl of the supernatant was measured by TopCount™ (Packard).
# For the determination of nonspecific binding, cold Aldosterone instead of drug was added to reaction mixture at 100 μM. Specific binding was determined by subtracting nonspecific binding from total binding.
row,inhibition at 10 µM [%],Structure (SMILES)
1,≥ 90,"Cc1nn(Cc2cccnc2)c(-c2ccc(F)cc2)c1-c1ccc2c(c1)NC(=O)CO2 [Example 135, 6-[5-(4-Fluorophenyl)-3-methyl-1-(pyridin-3-ylmethyl)-1H-pyrazol-4-yl]-2H-1,4-benzoxazin-3(4H)-one]"
2,≥ 90,"Cc1nn(CC(C)(F)F)c(-c2ccc(F)cc2)c1-c1ccc2c(c1)NC(=O)CO2 [Example 83, 6-[1-(2,2-Difluoropropyl)-5-(4-fluorophenyl)-3-methyl-1H-pyrazol-4-yl]-2H-1,4-benzoxazin-3(4H)-one]"
3,≥ 90,"Cc1nn(C[C@@H]2CCC(=O)O2)c(-c2ccc(F)cc2)c1-c1ccc2c(c1)NC(=O)CO2 [Example 159, 6-[5-(4-Fluorophenyl)-3-methyl-1-{[(2S)-5-oxotetrahydrofuran-2-yl]methyl}-1H-pyrazol-4-yl]-2H-1,4-benzoxazin-3(4H)-one]"
4,≥ 90,"Cc1nn(CC(F)(F)CO)c(-c2ccc(F)cc2)c1-c1ccc2c(c1C)NC(=O)CO2 [Example 128, 6-[1-(2,2-Difluoro-3-hydroxypropyl)-5-(4-fluorophenyl)-3-methyl-1H-pyrazol-4-yl]-5-methyl-2H-1,4-benzoxazin-3(4H)-one]"
5,≥ 90,"Cc1nn(CC(C)(C)CO)c(-c2ccc(F)cc2)c1-c1ccc2c(c1)NC(=O)CO2 [Example 125, 6-[5-(4-Fluorophenyl)-1-(3-hydroxy-2,2-dimethylpropyl)-3-methyl-1H-pyrazol-4-yl]-2H-1,4-benzoxazin-3(4H)-one]"
6,≥ 90,"Cc1nn(C)c(-c2ccc(F)cc2)c1-c1ccc2c(c1)NC(=O)CO2 [Example 1, 6-[5-(4-Fluorophenyl)-1,3-dimethyl-1H-pyrazol-4-yl]-2H-1,4-benzoxazin-3(4H)-one]"
7,≥ 90,"CC(=O)OCC(F)(F)Cn1nc(C)c(-c2ccc3c(c2)NC(=O)CO3)c1-c1ccc(F)cc1 [Example 26, 2,2-Difluoro-3-[5-(4-fluorophenyl)-3-methyl-4-(3-oxo-3,4-dihydro-2H-1,4-benzoxazin-6-yl)-1H-pyrazol-1-yl]propyl acetate]"
8,≥ 90,"Cc1nn(CC2CCOC2)c(-c2ccc(F)cc2)c1-c1ccc2c(c1)NC(=O)CO2 (stereo not drawn) [Example 146, 6-[5-(4-Fluorophenyl)-3-methyl-1-(tetrahydrofuran-3-ylmethyl)-1H-pyrazol-4-yl]-2H-1,4-benzoxazin-3(4H)-one]"
9,≥ 90,"Cc1nn(CCS(C)(=O)=O)c(-c2ccc(F)cc2)c1-c1ccc2c(c1)NC(=O)CO2 [Example 6, 6-{5-(4-Fluorophenyl)-3-methyl-1-[2-(methylsulfonyl)ethyl]-1H-pyrazol-4-yl}-2H-1,4-benzoxazin-3(4H)-one]"
10,≥ 90,"Cc1nn(CCC(F)(F)CO)c(-c2ccc(F)cc2)c1-c1ccc2c(c1)NC(=O)CO2 [Example 25, 6-[1-(3,3-Difluoro-4-hydroxybutyl)-5-(4-fluorophenyl)-3-methyl-1H-pyrazol-4-yl]-2H-1,4-benzoxazin-3(4H)-one]"
11,≥ 90,"Cc1nn(CC(F)(F)CO)c(-c2ccc(F)cc2)c1-c1ccc2c(c1)NC(=O)CO2 [Example 109, 6-[1-(2,2-Difluoro-3-hydroxypropyl)-5-(4-fluorophenyl)-3-methyl-1H-pyrazol-4-yl]-2H-1,4-benzoxazin-3(4H)-one]"
12,≥ 90,"CC(=O)Cn1nc(C)c(-c2ccc3c(c2)NC(=O)CO3)c1-c1ccc(F)cc1 [Example 87, 6-[5-(4-Fuorophenyl)-3-methyl-1-(2-oxopropyl)-1H-pyrazol-4-yl]-2H-1,4-benzoxazin-3(4H)-one]"

# Test system: not given
# Experiment: not given
# Settings: not given
row,melting point [°C],Structure (SMILES)
1,100,"CCOC(=O)CCC(=O)OCC(F)(F)Cn1nc(C)c(-c2ccc3c(c2)NC(=O)CO3)c1-c1ccc(F)cc1 [Example 185, 2,2-Difluoro-3-[5-(4-fluorophenyl)-3-methyl-4-(3-oxo-3,4-dihydro-2H-1,4-benzoxazin-6-yl)-1H-pyrazol-1-yl]propyl ethyl butanedioate]"
2,205 to 206,[2H]C1([2H])Oc2ccc(-c3c(C)nn(CC(C)(F)F)c3-c3ccc(F)cc3)cc2NC1=O [Example 174]
3,142,"CCOC(=O)OCC(F)(F)Cn1nc(C)c(-c2ccc3c(c2)NC(=O)CO3)c1-c1ccc(F)cc1 [Example 187, 2,2-Difluoro-3-[5-(4-fluorophenyl)-3-methyl-4-(3-oxo-3,4-dihydro-2H-1,4-benzoxazin-6-yl)-1H-pyrazol-1-yl]propyl ethyl carbonate]"
4,112,"CNC(=O)OCC(F)(F)Cn1nc(C)c(-c2ccc3c(c2)NC(=O)CO3)c1-c1ccc(F)cc1 [Example 198, 2,2-Difluoro-3-[5-(4-fluorophenyl)-3-methyl-4-(3-oxo-3,4-dihydro-2H-1,4-benzoxazin-6-yl)-1H-pyrazol-1-yl]propyl methylcarbamate]"
5,260.2 to 260.5,"Cc1nn(C)c(-c2ccc(F)cc2)c1-c1cc(Cl)c2c(c1)NC(=O)CO2 [Example 32, 8-Chloro-6-[5-(4-fluorophenyl)-1,3-dimethyl-1H-pyrazol-4-yl]-2H-1,4-benzoxazin-3(4H)-one]"
6,106,"CCCCCCCCCCCCCCCC(=O)OCC(F)(F)Cn1nc(C)c(-c2ccc3c(c2)NC(=O)CO3)c1-c1ccc(F)cc1 [Example 186, 2,2-Difluoro-3-[5-(4-fluorophenyl)-3-methyl-4-(3-oxo-3,4-dihydro-2H-1,4-benzoxazin-6-yl)-1H-pyrazol-1-yl]propyl hexadecanoate]"
